From ChEMBL document CHEMBL4507305, “Data for DCP probe TP-024” (2021)

How the values were obtained:
[1] = molecular target: Ephrin type-B receptor 2 (Homo sapiens) (UniProt P29323); settings: Compound concentration 1000.0 nM
[2] = molecular target: Cyclin-dependent kinase 11B (Homo sapiens) (UniProt P21127); settings: Compound concentration 1000.0 nM
[3] = molecular target: Mitogen-activated protein kinase kinase kinase 2 (Homo sapiens) (UniProt Q9Y2U5); settings: Compound concentration 1000.0 nM
[4] = molecular target: Serine/threonine-protein kinase pim-1 (Homo sapiens) (UniProt P11309); settings: Compound concentration 1000.0 nM
[5] = molecular target: Calcium/calmodulin-dependent protein kinase type 1B (Homo sapiens) (UniProt Q6P2M8); settings: Compound concentration 1000.0 nM
[6] = molecular target: D(4) dopamine receptor (Homo sapiens) (UniProt P21917); settings: Compound concentration 10.0 uM
[7] = molecular target: Ephrin type-A receptor 8 (Homo sapiens) (UniProt P29322); settings: Compound concentration 1000.0 nM
[8] = molecular target: Serine/threonine-protein kinase PAK 5 (Homo sapiens) (UniProt Q9P286); settings: Compound concentration 1000.0 nM
[9] = molecular target: Wee1-like protein kinase (Homo sapiens) (UniProt P30291); settings: Compound concentration 1000.0 nM
[10] = molecular target: Ephrin type-A receptor 3 (Homo sapiens) (UniProt P29320); settings: Compound concentration 1000.0 nM
[11] = molecular target: Serine/threonine-protein kinase SBK1 (Homo sapiens) (UniProt Q52WX2); settings: Compound concentration 1000.0 nM
[12] = molecular target: G protein-coupled receptor kinase 4 (Homo sapiens) (UniProt P32298); settings: Compound concentration 1000.0 nM
[13] = molecular target: Tyrosine-protein kinase FRK (Homo sapiens) (UniProt P42685); settings: Compound concentration 1000.0 nM
[14] = molecular target: cAMP-dependent protein kinase catalytic subunit alpha (Homo sapiens) (UniProt P17612); settings: Compound concentration 1000.0 nM
[15] = molecular target: Ribosomal protein S6 kinase alpha-4 (Homo sapiens) (UniProt O75676); settings: Compound concentration 1000.0 nM
[16] = molecular target: High affinity nerve growth factor receptor (Homo sapiens) (UniProt P04629); settings: Compound concentration 1000.0 nM
Sequence of High affinity nerve growth factor receptor (Homo sapiens) (P04629 33-796 limits assumed): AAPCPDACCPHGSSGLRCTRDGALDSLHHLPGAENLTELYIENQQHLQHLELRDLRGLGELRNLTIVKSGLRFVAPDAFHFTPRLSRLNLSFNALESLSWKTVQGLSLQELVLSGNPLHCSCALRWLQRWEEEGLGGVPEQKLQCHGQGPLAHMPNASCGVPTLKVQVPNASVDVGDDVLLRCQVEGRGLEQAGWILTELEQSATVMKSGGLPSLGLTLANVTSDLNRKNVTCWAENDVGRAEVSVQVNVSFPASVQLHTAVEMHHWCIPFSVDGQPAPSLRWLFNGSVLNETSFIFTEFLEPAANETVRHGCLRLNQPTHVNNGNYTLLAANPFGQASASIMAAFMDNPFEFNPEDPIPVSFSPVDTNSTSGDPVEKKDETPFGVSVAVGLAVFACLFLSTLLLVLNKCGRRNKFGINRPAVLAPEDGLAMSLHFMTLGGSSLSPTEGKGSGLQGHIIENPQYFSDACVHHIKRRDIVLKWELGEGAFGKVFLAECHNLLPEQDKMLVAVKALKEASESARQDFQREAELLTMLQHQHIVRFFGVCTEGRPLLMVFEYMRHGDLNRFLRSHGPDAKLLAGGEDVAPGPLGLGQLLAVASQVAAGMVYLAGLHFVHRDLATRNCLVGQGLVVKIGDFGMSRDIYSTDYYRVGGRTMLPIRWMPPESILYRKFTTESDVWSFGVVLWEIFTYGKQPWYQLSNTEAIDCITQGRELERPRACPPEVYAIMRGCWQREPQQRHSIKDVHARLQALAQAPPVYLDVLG

[17] = molecular target: RAC-beta serine/threonine-protein kinase (Homo sapiens) (UniProt P31751); settings: Compound concentration 1000.0 nM
[18] = molecular target: Vascular endothelial growth factor receptor 2 (Homo sapiens) (UniProt P35968); settings: Compound concentration 1000.0 nM
[19] = molecular target: Phosphorylase b kinase gamma catalytic chain, skeletal muscle/heart isoform (Homo sapiens) (UniProt Q16816); settings: Compound concentration 1000.0 nM
[20] = molecular target: Serine/threonine-protein kinase 38 (Homo sapiens) (UniProt Q15208); settings: Compound concentration 1000.0 nM
[21] = molecular target: Cyclin-dependent kinase 2 (Homo sapiens) (UniProt P24941); settings: Compound concentration 1000.0 nM
[22] = molecular target: Sigma non-opioid intracellular receptor 1 (Homo sapiens) (UniProt Q99720); settings: Compound concentration 10.0 uM
[23] = test system: Epidermal growth factor receptor (Homo sapiens), P00533 [UNDEFINED MUTATION]; settings: Compound concentration 1000.0 nM
[24] = molecular target: Sigma intracellular receptor 2 (Homo sapiens) (UniProt Q5BJF2); settings: Compound concentration 10.0 uM
[25] = test system: Phosphatidylinositol 4,5-bisphosphate 3-kinase catalytic subunit alpha isoform (Homo sapiens), P42336 [E542K]; settings: Compound concentration 1000.0 nM
[26] = molecular target: Activin receptor type-2B (Homo sapiens) (UniProt Q13705); settings: Compound concentration 1000.0 nM
[27] = molecular target: Serine/threonine-protein kinase SIK1 (Homo sapiens) (UniProt P57059); settings: Compound concentration 1000.0 nM
[28] = molecular target: Ephrin type-A receptor 5 (Homo sapiens) (UniProt P54756); settings: Compound concentration 1000.0 nM
[29] = molecular target: Dual serine/threonine and tyrosine protein kinase (Homo sapiens) (UniProt Q6XUX3); settings: Compound concentration 1000.0 nM
Sequence of Dual serine/threonine and tyrosine protein kinase (Homo sapiens) (Q6XUX3 whole entry): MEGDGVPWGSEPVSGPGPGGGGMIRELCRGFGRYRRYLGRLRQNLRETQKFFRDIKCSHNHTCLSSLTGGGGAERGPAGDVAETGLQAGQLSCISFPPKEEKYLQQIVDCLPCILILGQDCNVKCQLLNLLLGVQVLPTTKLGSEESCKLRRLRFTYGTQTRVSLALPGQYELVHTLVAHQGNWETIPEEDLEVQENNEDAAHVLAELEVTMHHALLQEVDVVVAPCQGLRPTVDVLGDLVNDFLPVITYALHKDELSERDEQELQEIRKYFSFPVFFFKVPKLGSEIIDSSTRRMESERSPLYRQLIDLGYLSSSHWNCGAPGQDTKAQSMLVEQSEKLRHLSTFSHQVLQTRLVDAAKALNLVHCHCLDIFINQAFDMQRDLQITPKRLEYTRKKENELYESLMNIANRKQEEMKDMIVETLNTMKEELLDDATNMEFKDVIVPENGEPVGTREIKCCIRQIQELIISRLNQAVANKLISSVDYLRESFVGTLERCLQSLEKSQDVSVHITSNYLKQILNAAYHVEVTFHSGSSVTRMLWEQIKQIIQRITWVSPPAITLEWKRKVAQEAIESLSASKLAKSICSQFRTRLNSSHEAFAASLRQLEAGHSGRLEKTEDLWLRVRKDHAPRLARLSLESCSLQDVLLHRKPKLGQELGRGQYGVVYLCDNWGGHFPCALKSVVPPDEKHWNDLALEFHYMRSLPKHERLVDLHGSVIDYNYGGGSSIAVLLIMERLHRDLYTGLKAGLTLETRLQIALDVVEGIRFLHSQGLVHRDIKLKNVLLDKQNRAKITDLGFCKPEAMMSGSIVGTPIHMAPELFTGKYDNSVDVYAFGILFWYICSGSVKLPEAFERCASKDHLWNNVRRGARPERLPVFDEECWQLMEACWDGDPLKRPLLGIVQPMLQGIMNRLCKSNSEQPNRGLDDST

[30] = molecular target: Mitogen-activated protein kinase 8 (Homo sapiens) (UniProt P45983); settings: Compound concentration 1000.0 nM
[31] = molecular target: Testis-specific serine/threonine-protein kinase 3 (Homo sapiens) (UniProt Q96PN8); settings: Compound concentration 1000.0 nM
[32] = test system: Tyrosine-protein kinase ABL1 (Homo sapiens), P00519 [F317L]; settings: Compound concentration 1000.0 nM
[33] = molecular target: Eukaryotic translation initiation factor 2-alpha kinase 1 (Homo sapiens) (UniProt Q9BQI3); settings: Compound concentration 1000.0 nM
[34] = molecular target: Mu-type opioid receptor (Homo sapiens) (UniProt P35372); settings: Compound concentration 10.0 uM
[35] = molecular target: Cyclin-dependent kinase 13 (Homo sapiens) (UniProt Q14004); settings: Compound concentration 1000.0 nM
Sequence of Cyclin-dependent kinase 13 (Homo sapiens) (Q14004 whole entry, looked up): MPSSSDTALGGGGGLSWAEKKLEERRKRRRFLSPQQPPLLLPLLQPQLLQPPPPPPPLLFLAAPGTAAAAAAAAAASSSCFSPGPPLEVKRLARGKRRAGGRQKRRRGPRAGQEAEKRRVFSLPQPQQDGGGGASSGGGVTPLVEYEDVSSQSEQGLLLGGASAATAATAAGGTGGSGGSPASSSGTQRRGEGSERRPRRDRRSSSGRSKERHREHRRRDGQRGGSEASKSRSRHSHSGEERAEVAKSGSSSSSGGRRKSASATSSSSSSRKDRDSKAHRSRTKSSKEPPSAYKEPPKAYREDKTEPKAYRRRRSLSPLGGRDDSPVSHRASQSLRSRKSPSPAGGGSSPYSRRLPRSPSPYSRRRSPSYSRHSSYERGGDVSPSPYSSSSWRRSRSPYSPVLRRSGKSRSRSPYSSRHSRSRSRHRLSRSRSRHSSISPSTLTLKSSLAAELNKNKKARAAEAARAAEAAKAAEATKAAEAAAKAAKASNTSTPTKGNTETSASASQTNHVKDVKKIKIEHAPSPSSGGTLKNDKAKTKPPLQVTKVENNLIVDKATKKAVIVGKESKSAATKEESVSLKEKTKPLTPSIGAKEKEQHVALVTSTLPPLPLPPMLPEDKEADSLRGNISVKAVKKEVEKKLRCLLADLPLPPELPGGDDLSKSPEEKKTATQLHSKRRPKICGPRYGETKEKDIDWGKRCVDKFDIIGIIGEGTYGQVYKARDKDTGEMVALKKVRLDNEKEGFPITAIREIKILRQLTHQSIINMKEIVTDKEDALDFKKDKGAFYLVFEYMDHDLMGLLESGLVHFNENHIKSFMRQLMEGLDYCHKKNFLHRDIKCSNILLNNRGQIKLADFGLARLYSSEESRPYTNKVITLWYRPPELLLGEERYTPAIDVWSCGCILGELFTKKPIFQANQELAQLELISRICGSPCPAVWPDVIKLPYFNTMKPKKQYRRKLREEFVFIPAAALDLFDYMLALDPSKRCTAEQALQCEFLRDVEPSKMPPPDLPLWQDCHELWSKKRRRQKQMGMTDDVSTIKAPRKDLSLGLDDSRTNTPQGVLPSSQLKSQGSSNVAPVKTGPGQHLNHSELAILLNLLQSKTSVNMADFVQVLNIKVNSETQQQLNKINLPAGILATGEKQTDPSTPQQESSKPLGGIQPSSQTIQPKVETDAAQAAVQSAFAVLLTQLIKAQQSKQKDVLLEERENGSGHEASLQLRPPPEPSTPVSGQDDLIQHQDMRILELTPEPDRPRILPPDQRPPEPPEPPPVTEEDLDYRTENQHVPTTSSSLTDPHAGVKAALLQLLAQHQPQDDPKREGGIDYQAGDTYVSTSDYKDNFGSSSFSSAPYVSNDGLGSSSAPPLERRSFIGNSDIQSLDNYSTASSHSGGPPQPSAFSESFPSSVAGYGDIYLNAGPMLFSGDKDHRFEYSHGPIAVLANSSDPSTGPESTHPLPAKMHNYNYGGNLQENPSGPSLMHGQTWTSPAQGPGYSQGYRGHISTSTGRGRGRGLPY

[36] = molecular target: Histamine H2 receptor (Homo sapiens) (UniProt P25021); settings: Compound concentration 10.0 uM
[37] = molecular target: Ephrin type-A receptor 7 (Homo sapiens) (UniProt Q15375); settings: Compound concentration 1000.0 nM
[38] = molecular target: Phosphatidylinositol 3-kinase C2 domain-containing subunit gamma (Homo sapiens) (UniProt O75747); settings: Compound concentration 1000.0 nM
[39] = molecular target: Serine/threonine-protein kinase 17B (Homo sapiens) (UniProt O94768); settings: Compound concentration 1000.0 nM
[40] = molecular target: Myosin light chain kinase family member 4 (Homo sapiens) (UniProt Q86YV6); settings: Compound concentration 1000.0 nM
[41] = molecular target: Ribosomal protein S6 kinase alpha-1 (Homo sapiens) (UniProt Q15418); settings: Compound concentration 1000.0 nM
Sequence of Ribosomal protein S6 kinase alpha-1 (Homo sapiens) (Q15418 whole entry): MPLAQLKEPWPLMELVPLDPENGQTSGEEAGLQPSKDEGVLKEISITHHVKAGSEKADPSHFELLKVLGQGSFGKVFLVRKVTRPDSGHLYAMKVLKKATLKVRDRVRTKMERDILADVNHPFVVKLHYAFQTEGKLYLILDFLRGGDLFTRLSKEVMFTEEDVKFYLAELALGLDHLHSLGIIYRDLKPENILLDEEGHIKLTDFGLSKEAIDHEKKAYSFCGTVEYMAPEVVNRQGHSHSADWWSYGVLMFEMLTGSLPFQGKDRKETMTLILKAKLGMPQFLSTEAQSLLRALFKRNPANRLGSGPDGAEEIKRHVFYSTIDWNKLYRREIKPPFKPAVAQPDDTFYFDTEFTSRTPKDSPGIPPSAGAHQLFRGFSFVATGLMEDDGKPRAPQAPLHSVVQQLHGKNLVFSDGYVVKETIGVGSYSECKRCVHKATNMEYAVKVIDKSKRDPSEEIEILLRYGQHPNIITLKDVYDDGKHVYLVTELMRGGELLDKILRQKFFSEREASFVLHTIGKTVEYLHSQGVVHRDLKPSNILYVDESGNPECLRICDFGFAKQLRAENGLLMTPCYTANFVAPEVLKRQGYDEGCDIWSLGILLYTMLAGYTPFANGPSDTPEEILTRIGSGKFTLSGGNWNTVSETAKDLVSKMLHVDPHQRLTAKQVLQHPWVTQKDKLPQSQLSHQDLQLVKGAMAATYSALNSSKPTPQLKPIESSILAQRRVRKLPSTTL

[42] = molecular target: G protein-coupled receptor kinase 3 (Homo sapiens) (UniProt P35626); settings: Compound concentration 1000.0 nM
[43] = molecular target: Tyrosine-protein kinase JAK2 (Homo sapiens) (UniProt O60674); settings: Compound concentration 1000.0 nM
[44] = molecular target: Cytoplasmic tyrosine-protein kinase BMX (Homo sapiens) (UniProt P51813); settings: Compound concentration 1000.0 nM
[45] = molecular target: Serine/threonine-protein kinase TNNI3K (Homo sapiens) (UniProt Q59H18); settings: Compound concentration 1000.0 nM

Sequence of Ephrin type-B receptor 2 (Homo sapiens) (P29323 whole entry): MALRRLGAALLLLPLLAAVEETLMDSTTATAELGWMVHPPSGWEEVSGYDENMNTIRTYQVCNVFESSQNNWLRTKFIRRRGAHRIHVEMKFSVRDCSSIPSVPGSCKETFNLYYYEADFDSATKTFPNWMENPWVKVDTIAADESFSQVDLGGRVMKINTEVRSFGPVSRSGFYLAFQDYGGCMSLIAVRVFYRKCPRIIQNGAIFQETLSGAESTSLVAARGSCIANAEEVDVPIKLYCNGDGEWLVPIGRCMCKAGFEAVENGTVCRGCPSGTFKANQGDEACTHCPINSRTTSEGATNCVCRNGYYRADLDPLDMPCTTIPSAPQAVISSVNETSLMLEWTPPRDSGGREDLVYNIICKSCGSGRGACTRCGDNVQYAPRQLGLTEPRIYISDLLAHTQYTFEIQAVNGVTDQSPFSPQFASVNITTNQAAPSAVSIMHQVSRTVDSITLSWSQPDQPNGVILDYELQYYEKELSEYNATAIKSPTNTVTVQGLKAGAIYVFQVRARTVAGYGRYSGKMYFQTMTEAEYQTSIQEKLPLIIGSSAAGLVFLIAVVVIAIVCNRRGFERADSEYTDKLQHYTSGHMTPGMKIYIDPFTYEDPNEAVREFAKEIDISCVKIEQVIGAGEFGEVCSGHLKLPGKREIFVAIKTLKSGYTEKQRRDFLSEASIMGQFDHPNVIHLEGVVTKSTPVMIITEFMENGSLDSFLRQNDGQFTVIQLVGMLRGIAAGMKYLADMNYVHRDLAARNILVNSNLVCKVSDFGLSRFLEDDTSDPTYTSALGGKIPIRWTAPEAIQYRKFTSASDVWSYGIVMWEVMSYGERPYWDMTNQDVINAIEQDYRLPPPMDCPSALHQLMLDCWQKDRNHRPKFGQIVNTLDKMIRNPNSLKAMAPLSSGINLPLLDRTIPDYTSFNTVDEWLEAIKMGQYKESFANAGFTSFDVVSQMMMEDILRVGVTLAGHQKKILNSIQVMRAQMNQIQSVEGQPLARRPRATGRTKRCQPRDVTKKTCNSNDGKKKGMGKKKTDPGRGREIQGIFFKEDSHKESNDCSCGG

Cc1cc(-n2nc(Cc3cc(F)cc(C(F)(F)F)c3)nc2C)ccc1C(N)=O [TP-024]
inactive: residual activity [1] 100% | residual activity [2] 100% | residual activity [3] 100% | residual activity [4] 100% | residual activity [5] 100% | inhibition [6] -2.09% | residual activity [7] 100% | residual activity [8] 100% | residual activity [9] 100% | residual activity [10] 94% | residual activity [11] 98% | residual activity [12] 100% | residual activity [13] 100% | residual activity [14] 100% | residual activity [15] 100% | residual activity [16] 97% | residual activity [17] 100% | residual activity [18] 100% | residual activity [19] 98% | residual activity [20] 83% | residual activity [21] 100% | inhibition [22] 5.85% | residual activity [23] 83% | inhibition [24] -7.3% | residual activity [25] 73% | residual activity [26] 100% | residual activity [27] 100% | residual activity [28] 100% | residual activity [29] 97% | residual activity [30] 78% | residual activity [31] 55% | residual activity [32] 100% | residual activity [33] 100% | inhibition [34] 0.37% | residual activity [35] 100% | inhibition [36] 6.28% | residual activity [37] 98% | residual activity [38] 100% | residual activity [39] 81% | residual activity [40] 100% | residual activity [41] 100% | residual activity [42] 100% | residual activity [43] 100% | residual activity [44] 100% | residual activity [45] 100%

Cc1nc(Cc2cccc(C(F)(F)F)c2)sc1-c1ccc(C(N)=O)nc1 [TP-024n]
inactive: residual activity [1] 86% | residual activity [2] 97% | residual activity [3] 100% | residual activity [4] 96% | residual activity [5] 100% | inhibition [6] -2.16% | residual activity [7] 100% | residual activity [8] 97% | residual activity [9] 96% | residual activity [10] 88% | residual activity [11] 100% | residual activity [12] 100% | residual activity [13] 100% | residual activity [14] 75% | residual activity [15] 100% | residual activity [16] 64% | residual activity [17] 81% | residual activity [18] 86% | residual activity [19] 84% | residual activity [20] 81% | residual activity [21] 100% | inhibition [22] 11.7% | residual activity [23] 83% | inhibition [24] -8.52% | residual activity [25] 66% | residual activity [26] 86% | residual activity [27] 100% | residual activity [28] 100% | residual activity [29] 78% | residual activity [30] 90% | residual activity [31] 100% | residual activity [32] 89% | residual activity [33] 100% | inhibition [34] 5.75% | residual activity [35] 100% | inhibition [36] 6.05% | residual activity [37] 100% | residual activity [38] 93% | residual activity [39] 79% | residual activity [40] 91% | residual activity [41] 79% | residual activity [42] 100% | residual activity [43] 100% | residual activity [44] 59% | residual activity [45] 100%
